In US10059669B2, “2-amino-3,5-difluoro-3,6-dimethyl-6-phenyl-3,4,5,6-tetrahydropyridines as BACE1 inhibitors for treating alzheimer's disease” (H. Lundbeck A/S, priority 2014, dated 2018):

Tests used:
BACE1 [1] = target: T1, BACE1 (Homo sapiens (Human), UniProt P56817); experiment: BACE1 efficacy assay (FRET-based, commercial BACE1 kit); assay type: biochemical; details: 10 μM test compound
Method: The efficacy assay was performed as a FRET-based assay using a commercially available BACE1 kit (Life Technologies, P2985). 2 μl test compound at 10 μM (final concentration) and 15 μl BACE1 enzyme from the kit (final concentration 3 nM) were preincubated for 15 minutes at room temperature before addition of 15 μl of substrate from the kit (250 nM final concentration) and incubated for additional 90 minutes at room temperature. The assay plate was subsequently read in a Pherastar (Ex540/Em590). The enzyme activity observed in presence of test compound were normalized to the enzyme activity observed in presence of buffer and 10 μM (final concentration) of the high affinity BACE1 reference inhibitor (S)-6-[3-Chloro-5-(5-prop-1-ynyl-pyridin-3-yl)-thiophen-2-yl]-2-imino-3,6-dimethyl-tetra-hydropyrimidin-4-one, respectively. The efficacy of the test compounds was evaluated at 10 μM (final concentration) and defined as the percent inhibition of the enzyme activity using the equation % inhibition=100%−normalized enzyme activity in percent.

BACE1 [2] = target: T1, BACE1; experiment: BACE1 binding assay (SPA-based radioligand binding); details: pH 4.5, 10 nM radioligand, Ki calculated from IC50
Method: The binding assay was performed as SPA-based assay using a biotinylated form of human BACE1 recombinantly expressed and subsequently purified from Freestyle HEK293 cells. The binding assay was run in a 50 mM sodium acetate buffer, pH 4.5 containing 50 mM NaCl and 0.03% Tween-20 in white clear bottom 384 plates (Corning #3653). 10 nM (final concentration) radioligand ([^3H]—N-((1S,2R)-1-benzyl-3-cyclopropylamino-2-hydroxy-propyl)-5-(methanesulfonyl-methyl-amino)-N—((R)-1-phenyl-ethyl)-isophthalamide) (TRQ11569 purchased from GE Healthcare) was mixed with test compound at a given concentration, 6 nM (final concentration) human BACE1 and 25 μg Streptavidin coated PVT core SPA beads (RPNQ0007, GE Healthcare Life Sciences) in a total volume of 40 μl. Several concentrations of each test compound were tested in the assay for IC50 determination. The plates were incubated for one hour at room temperature and counted in a Wallac Trilux counter. Total and non-specific binding were determined using buffer and 1 μM (final concentration) of the high affinity BACE1 reference inhibitor (S)-6-[3-chloro-5-(5-prop-1-ynyl-pyridin-3-yl)-thiophen-2-yl]-2-imino-3,6-dimethyl-tetrahydro-pyrimidin-4-one, respectively. For each test compound, a IC50 value (the concentration mediating 50% inhibition of the specific binding of the radioligand) was determined from concentration-response curve and used to calculate the Ki from the equation Ki=IC50/(1+L/Kd), where L and Kd are the final concentration of the radioligand used in the assay and the dissociation constant of the radioligand, respectively. The Kd of the radioligand was determined from saturation binding experiments.

P-gp (MDR1) = experiment: MDCK-MDR1 assay (permeability, efflux ratio); assay type: in vitro ADME; details: dog, Papp BA/Papp AB, 60-minute incubation, Pgp substrate when ≥2
Method: The permeability of the test compounds was assessed in MDCK-MDR1 cells that were cultured to confluency (4-6 days) in a 96 transwell plate. Test compounds were diluted with the transport buffer (HBSS+1% BSA) to a concentration of 0.5 μM and applied to the apical or basolateral side of the cell monolayer. Permeation of the test compounds from A to B direction or B to A direction was determined in triplicate over a 60-minute incubation time at 37° C. and 5% CO2 with a relative humidity of 95%. Test compounds were quantified by LC-MS/MS analysis based on the peaks area ratios of analyte/IS in both the receiver and donor wells of the transwell plate.
The apparent permeability coefficient Papp (cm/s) was calculated using the equation: Papp=(dCr/dt)×Vr/(A×C0)
Where dCr/dt is the cumulative concentration of compound in the receiver chamber as a function of time (M/s); Vr is the solution volume in the receiver chamber (0.05 mL on the apical side; 0.25 mL on the basolateral side); A is the surface area for the transport, i.e. 0.0804 cm^2 for the area of the monolayer; C0 is the initial concentration in the donor chamber (VIM).
Compounds are classified Pgp substrates when efflux ratio (Papp BA/Papp AB) is ≥2.

T1 sequence (P56817 46-501): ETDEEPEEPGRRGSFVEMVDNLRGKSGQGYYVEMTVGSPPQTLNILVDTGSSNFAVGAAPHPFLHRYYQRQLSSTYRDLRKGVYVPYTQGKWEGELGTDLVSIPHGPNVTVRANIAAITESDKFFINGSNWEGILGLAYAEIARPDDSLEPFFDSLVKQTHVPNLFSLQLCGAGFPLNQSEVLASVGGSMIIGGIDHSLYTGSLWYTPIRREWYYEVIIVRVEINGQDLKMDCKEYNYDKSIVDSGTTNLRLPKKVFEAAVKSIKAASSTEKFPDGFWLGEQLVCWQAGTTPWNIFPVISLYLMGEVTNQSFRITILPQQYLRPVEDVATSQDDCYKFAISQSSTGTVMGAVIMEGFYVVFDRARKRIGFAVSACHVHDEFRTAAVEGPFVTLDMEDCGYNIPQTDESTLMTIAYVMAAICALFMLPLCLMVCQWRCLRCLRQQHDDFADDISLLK

Row | Structure (SMILES) | inhibition at 10 µM (BACE1 [1]) [%] | Ki (BACE1 [2]) [nM] | efflux ratio at 60 min, 0.5 μM (P-gp (MDR1))
1 | [2H]C([2H])([2H])Oc1ccc(C(=O)Nc2ccc(F)c([C@@]3(C)N=C(N)[C@@](C)(F)C[C@H]3F)c2)nc1 [Compound 23, N-(3-((2R,3R,5S)-6-amino-3,5-difluoro-2,5-dimethyl-2,3,4,5-tetrahydropyridin-2-yl)-4-fluorophenyl)-5-(methoxy-d3)picolinamide] | 107 | 81 | 0.95
2 | C[C@@]1(F)C[C@H](F)[C@@](C)(c2cc(NC(=O)c3ccc(C#N)cn3)ccc2F)N=C1N [Compound 17, N-(3-((2R,3S,5R)-6-amino-3,5-difluoro-2,5-dimethyl-2,3,4,5-tetrahydropyridin-2-yl)-4-fluorophenyl)-5-cyanopicolinamide] | – | 39 | 0.45
3 | C[C@@]1(F)C[C@H](F)[C@@](C)(c2cc(NC(=O)c3cnc(C(F)(F)F)cn3)ccc2F)N=C1N [Compound 11, N-(3-((2R,3S,5R)-6-amino-3,5-difluoro-2,5-dimethyl-2,3,4,5-tetrahydropyridin-2-yl)-4-fluorophenyl)-5-(trifluoromethyl)pyrazine-2-carboxamide] | 104 | 190 | –
4 | [2H]C([2H])([2H])Oc1ccc(C(=O)Nc2cc(F)c(F)c([C@@]3(C)N=C(N)[C@@](C)(F)C[C@@H]3F)c2)nc1 [Compound 22, N-(3-((2R,3S,5S)-6-amino-3,5-difluoro-2,5-dimethyl-2,3,4,5-tetrahydropyridin-2-yl)-4,5-difluorophenyl)-5-(methoxy-d3)picolinamide] | 101 | 3.6 | 0.52
5 | [2H]C([2H])([2H])Oc1ccc(C(=O)Nc2cc(F)c(F)c([C@@]3(C)N=C(N)[C@](C)(F)C[C@@H]3F)c2)nc1 [Compound 18, N-(3-((2R,3S,5R)-6-amino-3,5-difluoro-2,5-dimethyl-2,3,4,5-tetrahydropyridin-2-yl)-4,5-difluorophenyl)-5-(methoxy-d3)picolinamide] | 101 | 6.8 | 1.24
6 | C[C@@]1(F)C[C@H](F)[C@@](C)(c2cc(NC(=O)c3ccn(C(F)F)n3)ccc2F)N=C1N [Compound 14, N-(3-((2R,3S,5R)-6-amino-3,5-difluoro-2,5-dimethyl-2,3,4,5-tetrahydropyridin-2-yl)-4-fluorophenyl)-1-(difluoromethyl)-1H-pyrazole-3-carboxamide] | 112 | 45 | 15.8
7 | C[C@@]1(F)C[C@H](F)[C@@](C)(c2cc(NC(=O)c3cnc(C(F)F)cn3)ccc2F)N=C1N [Compound 15, N-(3-((2R,3S,5R)-6-amino-3,5-difluoro-2,5-dimethyl-2,3,4,5-tetrahydropyridin-2-yl)-4-fluorophenyl)-5-(difluoromethyl)pyrazine-2-carboxamide] | 108 | 100 | 2.07

The remaining lines, values ahead:

Row | inhibition at 10 µM (BACE1 [1]) [%] | Ki (BACE1 [2]) [nM] | efflux ratio at 60 min, 0.5 μM (P-gp (MDR1)) | Structure (SMILES)
8 | 103 | 4.3 | – | C[C@]1(F)C[C@H](F)[C@@](C)(c2cc(NC(=O)c3ccc(Br)cn3)ccc2F)N=C1N [Compound 24, N-(3-((2R,3S,5S)-6-amino-3,5-difluoro-2,5-dimethyl-2,3,4,5-tetrahydropyridin-2-yl)-4-fluorophenyl)-5-bromopicolinamide]
9 | 101 | 58 | 1.1 | Cc1nc(C(=O)Nc2ccc(F)c([C@@]3(C)N=C(N)[C@](C)(F)C[C@@H]3F)c2)co1 [Compound 6, N-(3-((2R,3S,5R)-6-amino-3,5-difluoro-2,5-dimethyl-2,3,4,5-tetrahydropyridin-2-yl)-4-fluorophenyl)-2-methyloxazole-4-carboxamide]
10 | 108 | 62 | 11.7 | C[C@@]1(F)C[C@H](F)[C@@](C)(c2cc(NC(=O)c3coc(C(F)F)n3)ccc2F)N=C1N [Compound 13, N-(3-((2R,3S,5R)-6-amino-3,5-difluoro-2,5-dimethyl-2,3,4,5-tetrahydropyridin-2-yl)-4-fluorophenyl)-2-(difluoromethyl)oxazole-4-carboxamide]
11 | 101 | 98 | 1.17 | C[C@@]1(F)C[C@H](F)[C@@](C)(c2cc(NC(=O)c3ccc(F)cn3)ccc2F)N=C1N [Compound 4, N-(3-((2R,3S,5R)-6-amino-3,5-difluoro-2,5-dimethyl-2,3,4,5-tetrahydropyridin-2-yl)-4-fluorophenyl)-5-fluoropicolinamide]
12 | 115 | 820 | – | Cn1ccnc1C(=O)Nc1ccc(F)c([C@@]2(C)N=C(N)[C@](C)(F)C[C@@H]2F)c1 [Compound 10, N-(3-((2R,3S,5R)-6-amino-3,5-difluoro-2,5-dimethyl-2,3,4,5-tetrahydropyridin-2-yl)-4-fluorophenyl)-1-methyl-1H-imidazole-2-carboxamide]
13 | 118 | 99 | – | Cc1csc(C(=O)Nc2ccc(F)c([C@@]3(C)N=C(N)[C@](C)(F)C[C@@H]3F)c2)n1 [Compound 12, N-(3-((2R,3S,5R)-6-amino-3,5-difluoro-2,5-dimethyl-2,3,4,5-tetrahydropyridin-2-yl)-4-fluorophenyl)-4-methylthiazole-2-carboxamide]
14 | 109 | 36 | 1.31 | C[C@@]1(F)C[C@H](F)[C@@](C)(c2cc(NC(=O)c3ccc(Cl)cn3)ccc2F)N=C1N [Compound 9, N-(3-((2R,3S,5R)-6-amino-3,5-difluoro-2,5-dimethyl-2,3,4,5-tetrahydropyridin-2-yl)-4-fluorophenyl)-5-chloropicolinamide]
15 | 103 | 30 | 1.09 | C[C@]1(F)C[C@H](F)[C@@](C)(c2cc(NC(=O)c3ccc(F)cn3)ccc2F)N=C1N [Compound 1, N-(3-((2R,3S,5S)-6-Amino-3,5-difluoro-2,5-dimethyl-2,3,4,5-tetrahydropyridin-2-yl)-4-fluorophenyl)-5-fluoropicolinamide]
16 | 99 | 26 | 0.79 | COc1cnc(C(=O)Nc2ccc(F)c([C@@]3(C)N=C(N)[C@@](C)(F)C[C@@H]3F)c2)cn1 [Compound 2, N-(3-((2R,3S,5S)-6-amino-3,5-difluoro-2,5-dimethyl-2,3,4,5-tetrahydropyridin-2-yl)-4-fluorophenyl)-5-methoxypyrazine-2-carboxamide]
17 | 102 | 39 | 5.67 | COc1ccc(C(=O)Nc2ccc(F)c([C@@]3(C)N=C(N)[C@](C)(F)C[C@@H]3F)c2)nc1 [Compound 7, N-(3-((2R,3S,5R)-6-amino-3,5-difluoro-2,5-dimethyl-2,3,4,5-tetrahydropyridin-2-yl)-4-fluorophenyl)-5-methoxypicolinamide]
18 | – | 51 | 1.53 | COc1cnc(C(=O)Nc2ccc(F)c([C@@]3(C)N=C(N)[C@](C)(F)C[C@@H]3F)c2)cn1 [Compound 5, N-(3-((2R,3S,5R)-6-amino-3,5-difluoro-2,5-dimethyl-2,3,4,5-tetrahydropyridin-2-yl)-4-fluorophenyl)-5-methoxypyrazine-2-carboxamide]
